# Data: patent publication US20040039211A1, “Tetrapyrroles” (DUKE UNIVERSITY AND NATIONAL JEWISH MEDICAL AND RESEARCH …, priority 2000, published 2004)
# Key:
# [1] = Degradation by H2O2 followed by uv/vis spectroscopy; format: physicochemical
# From the text: Uv/vis Spectroscopy. […] Also the effects of EDTA, H2O2, and the methanol/water ratio on the stability of the manganese(III) complex were examined. […] 79:699 (1960)). When needed the biliverdin and biliverdin dimethylester as well as their reduced forms bilirubin and bilirubin dimethylester were studied. At μM concentrations, manganese(III) and iron(III) porphyrins are degraded by H2O2 in aqueous solution. pH 7.8 (Batinic-Haberle et al, Inorg. Chem. 38:4011 (1999), Everett et al, J. Trans. Faraday Soc. 49:410 (1953)). […] The reaction was followed in 90/10, v/v methanouaqueous solution at pH^* 7.9. […] The uv/vis spectroscopy indicated degradation via the reduction of biliverdin to bilirubin followed by loss of metal (Gray et al, J. Chem. Soc. 2276 (1961); Kuenzle et al, Biochem. J. 130:1147 (1972); […], Nature 899 (1962)). The interaction of biliverdin and bilirubin with H2O, was also followed in 0.05 M tris buffer, pH 7.8. As observed for its metal complex, biliverdin undergoes reduction by H2O2 via bilirubin. Under pseudo-first order conditions (6 mM to 60 mM H2O2, 60 μM biliverdin), the second-order rate constant was k=3×10^-3 M^-1 s^-1. Bilirubin is more resistant to H2O2 than biliverdin or its metal complex. The disappearance of bilirubin was followed at 435 nm (Gray et al, J. Chem. Soc. 2268 (1961)). Under conditions given above and at 60 mM H2O2, about 40% of the biliverdin and 14% of bilirubin was degraded within 4.4 hours, and about 14% of the complex was degraded inside 80 min.
# [2] = tested on: rat brain homogenates; assay: Lipid peroxidation of rat brain homogenates by iron/ascorbate (TBARS); format: biochemical; conditions: concentration that reduced lipid peroxidation by one-half
# Experimental: The ability of mimetics to inhibit lipid peroxidation can be assessed as described by Day et al, Free Rad. Biol. Med. 26:730 (1990). Iron and ascorbate can be used to initiate lipid peroxidation in tissue homogenates and the formation of thiobarbituric acid reactive species (T BARS) measured.
# Two metallotetrapyrroles were tested for antioxidant activity, in vitro. In particular, the compounds were assayed for their ability to dismutate superoxide in the indirect method that utilizes xanthine and xanthine oxidase to generate superoxide and cytochrome c reduction as indicator of superoxide flux. […] The compounds were also assayed for their ability to prevent lipid peroxidation of rat brain homogenates by iron and ascorbate. The mixture of iron and ascorbate generates reactive oxygen species that oxidize biological lipids and these oxidized lipids can be detected as species that react with thiobarbituric acid (TBARS). Both compounds could inhibit the formation of TBARS and this ability correlated with their superoxide dismutase (SOD) activity (Table 5).
# b) Lipid peroxidation was initiated in rat brain homogenates with iron/ascorbate and the IC50 is the concentration of compound that reduced lipid peroxidation by one-half.
# [3] = Solubility; format: physicochemical
substance,measurement,setting,value
Manganese(III) Biliverdin IX Dimethylester [{Mn^IIIBVDME}2],fraction degraded by H2O2,"[1]; 60 mM H2O2, inside 80 min",about 14%
same,second-order rate constant k of H2O2 induced degradation,"[1]; 90/10 v/v methanol/aqueous, pH* 7.9, 6 mM to 120 mM H2O2, 15 and 30 μM complex",0.00064 M⁻¹ s⁻¹
same,IC50,[2],300 nM
same,solubility in organic solvents,"[3]; ethanol, methanol",soluble in ethanol and methanol
same,solubility in water,[3]; water,~10^−8 M
